Reference: publication PMC2244645, “Peptide ligand screening of α-synuclein aggregation modulators by in silico panning” (BMC Bioinformatics, 2007)
Peptide text beside a SMILES is read from it.

Columns and labels:
[1] = tested on: α-synuclein 68–78 (GAVVTGVTAVA); conditions: ref [14]; cited from earlier work
Text: To obtain an effective peptidic aggregation inhibitor, the peptide should bind to the region that plays an important role in amyloid fibril formation. The hydrophobic central region of α-synuclein called the "non-amyloid-β component of the amyloid plaque" (NAC) (residues 61–95) is the most important region in the formation of amyloid-like fibrils.

α-synuclein [2] = target: T1, α-synuclein (Homo sapiens, UniProt P37840); test: surface plasmon resonance binding (CM5 sensor chip); conditions: Scatchard plot; for affinity to α-synuclein (in words): peptide immobilized on CM5 chip by amine coupling, α-synuclein injected
T1 construct: made in house; host or cells: Escherichia coli BL21(DE3)
Method: The affinities of the screened peptides were determined by surface plasmon resonance measurement. The screened peptides were immobilized on a CM5 sensor chip by amine coupling. […] Thus, we added an alanine residue to the N-terminals of these peptides to immobilize them on the CM5 sensor chip and evaluated them. The dissociation constants were determined using a Scatchard plot. […] In the case of PTYF, its KD was more than 10 times that of QSTQ. Since docking simulation still has problems inaccuracy, we have to evaluate several peptides to find good ligands. In this study, we can obtain the high affinity peptide by assaying the top 4 peptides.
Human wild-type α-synuclein expressed in Escherichia coli BL21(DE3) cells transformed the pET28a/human α-synuclein WT plasmid. Following induction with 1 mM isopropyl-1-thio-β-D-galactopyranoside, the α-synuclein was purified by anion exchange chromatography. The bacterial cells were harvested by centrifugation at 5,000 g for 10 min and lysed in 500 mM NaCl, 20 mM Tris-HCl, pH 8.0, and 1 mM EDTA. The lysate was then boiled for 20 min, and centrifuged for 10 min at 20,000 g. The supernatant was dialyzed against 20 mM Tris-HCl, pH 8.0, loaded onto a ResourseQ 6-ml column (Amersham Biosciences) equilibrated in the same buffer, and eluted with a 0 ~1 M NaCl gradient. The α-synuclein-containing fraction was dialyzed against 10 mM Tris-HCl, pH 7.4.
All peptides were immobilized onto the CM5 sensor chip by amine coupling. The CM5 sensor chip (Biacore) was activated by an equimolar mix of NHS (N-hydroxysuccinimide) and EDC (N-ethyl-N'-(dimethylaminopropyl) carbodiimide), coupled with 100 μg/mL of the synthesized peptide in pH-6.0 sodium acetate buffer, and then blocked with ethanolamine. For reference, only activation and protection was carried out, in the same way as mentioned above. The final coupling level of each peptide was approximately 100 RU. Each of the α-synuclein solutions was injected, and at different concentrations a signal increase was observed. The sensor surface was regenerated using 0.5% SDS. The dissociation constants were determined using a Scatchard plot and an equilibrium point.

α-synuclein [3] = target: T1, α-synuclein; test: light scattering assay at 330 nm (total aggregation); assay type: biochemical; conditions: 5-fold molar excess of peptide, 10 mM Tris-HCl pH 7.4, 0.02% NaN3, 37°C, shaking
Method: (§1) To determine the effect of peptides on α-synuclein aggregation, we co-incubated α-synuclein with 5-fold molar excess of the screened peptides. The α-synuclein fibril amounts were evaluated by Thioflavin T (TfT) binding assay. It is known that when TfT binds to amyloid fibrils, the fluorescence intensity around 480 nm increases. […] Next, to determine whether or not these increases in fluorescence intensity depend on the fibril amount, we examined the aggregation amount by a light scattering assay at 330 nm. The value of optical density at 330 nm of the α-synuclein solution with the top peptides was also higher compared with that of the α-synuclein solution without peptide, as shown in Figure 4.
Figure 4 Light scattering assay. […] 100% is the optical density at 330 nm of α-synuclein without peptide. […]
(§2) All the protein samples were concentrated to approximately 4.0 mg/ml by means of Amicon Ultra-15 filters (Millipore) in 10 mM Tris-HCl, pH 7.4, and centrifuged at 150,000 g for 60 min to remove the insoluble aggregates. […] Fibril formation was monitored by thioflavin T (TfT) fluorescence: 10 μl aliquots were sampled from the incubated samples and added to 1.0 ml of 25 μM TfT in 10 mM Tris buffer, pH 7.4. Fluorescence emission was measured at 485 nm at an excitation wavelength of 450 nm on a FP6500 spectrofluorometer (JASCO). […]

α-synuclein [4] = conditions: cited from earlier work
α-synuclein [5] = target: T1, α-synuclein; test: Thioflavin T (TfT) binding assay of α-synuclein fibril formation; assay type: biochemical; conditions: α-synuclein 140 μM, peptide 700 μM (5-fold molar excess), 10 mM Tris-HCl pH 7.4, 0.02% NaN3, 37°C, shaking; 25 μM TfT
Method: as §1
Figure 3 Time course of α-synuclein fibril formation. […] 100% is the final fluorescence intensity of α-synuclein without peptide. […]
as §2

## GAVVTGVTAVA [α-synuclein 68–78, partial peptide in NAC, the target 11-mer peptide]
[1]
  amyloid-like fibril formation by itself (in words): form amyloid-like fibrils by themselves

## GSQQ [tetramer peptide from in silico panning, rank 2]
α-synuclein [2]
  affinity to α-synuclein (in words): lower affinity than QSTQ and AQTQ

## AQTQ [tetramer peptide from in silico panning, rank 4]
α-synuclein [3]
  optical density at 330 nm relative to solution without peptide: more than 1.5 times
α-synuclein [2]
  affinity to α-synuclein (in words): bound to α-synuclein with similar affinity of QSTQ

## N[C@@H](Cc1ccc(O)c(O)c1)C(=O)O [L-DOPA]
α-synuclein [4]
  cytotoxicity (in words): enhance cytotoxicity

## SQTQ [tetramer peptide from in silico panning, rank 3]
α-synuclein [2]
  affinity to α-synuclein (in words): lower affinity than QSTQ and AQTQ

## PTYF
α-synuclein [2]; peptide immobilized on CM5 chip, alanine residue added to N-terminal
  KD relative to KD of QSTQ: more than 10 times

## C[C@@H](O)[C@H](NC(=O)[C@H](CO)NC(=O)[C@@H](N)CCC(N)=O)C(=O)N[C@@H](CCC(N)=O)C(=O)O [QSTQ] (H-QSTQ-OH; N-terminus and C-terminus assumed)
α-synuclein [3]
  optical density at 330 nm relative to solution without peptide: more than 1.5 times
α-synuclein [5]
  fluorescence intensity of TfT relative to solution without peptide: more than 1.5 times
